# From patent US4610879A (priority 1984, dated 1986)
# Key:
# [1] = target: fibrinolytic enzyme from Southern Copperhead venom (Agkistrodon contortrix contortrix, UniProt P28891); assay: biochemical; assay type: biochemical, Southern Copperhead snake (A.c. contortrix)
# [2] = system: purified human plasminogen; assay: Plasminogen activation measured by S-2251 hydrolysis; assay type: biochemical; details: aliquots of the venom enzyme-plasminogen mixture treated with streptokinase
# [3] = system: autologous or human clots; assay: Streptokinase regimens in animal clot models; assay type: in vivo, dogs, pigs, and rabbits; details: increasing the rate of streptokinase infusion
# azocasein = details: pure plasmin, for comparison; cited from earlier work
# human plasma clot = assay: Plasma clot lysis, human plasma; assay type: biochemical; details: plasmin 1.08 caseinolytic units per milliliter, after twenty-four hours
# fibrin clots = assay: Preliminary in vitro evaluation against fibrin clots in plasma; assay type: biochemical; details: 0.1 mgm purified venom enzyme, or plasmin
# rabbit plasma clot = assay: Plasma clot lysis, rabbit plasma; assay type: biochemical; details: plasmin 1.08 caseinolytic units per milliliter, after twenty-four hours
# fibrinolytic enzyme from Southern Copperhead venom, sequence (P28891 whole entry, looked up): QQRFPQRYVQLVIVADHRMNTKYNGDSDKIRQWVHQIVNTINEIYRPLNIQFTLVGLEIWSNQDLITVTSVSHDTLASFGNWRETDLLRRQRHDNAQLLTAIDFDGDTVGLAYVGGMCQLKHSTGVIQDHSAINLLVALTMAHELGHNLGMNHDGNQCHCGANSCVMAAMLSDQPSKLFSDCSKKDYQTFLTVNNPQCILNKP
molecule,measurement,setting,value
O=C(O)c1cc[c]([Hg][Cl])cc1 [p-Chloromercuribenzoate],Inhibition of the venom fibrinolytic enzyme (in words),[1],not inhibited
streptokinase,S-2251 hydrolyzing activity (plasmin formed),[2],hydrolyzing activity was generated
same,Acceleration of clot lysis,[3],ineffective in significantly accelerating clot lysis
c1cnc2c(c1)ccc1cccnc12 [o-phenanthroline],Inhibition of the venom fibrinolytic enzyme (in words),[1],inhibited
α2 -Macroglobulin,Inhibition of Azocaseinolytic Activity,[1],95%
same,Inhibition of the venom fibrinolytic enzyme (in words),[1],inhibits
O=C(O)CN(CCN(CC(=O)O)CC(=O)O)CC(=O)O [EDTA],Inhibition of the venom fibrinolytic enzyme (in words),[1],inhibited
same,inhibition at 50000 µM,[1]; read-out: Inhibition of Azocaseinolytic Activity,92%
plasmin,Plasmin activity,azocasein,30-35 units per mg
same,Plasma clot lysis,human plasma clot,did not lyse
same,Fibrin clot lysis in plasma clotted with thrombin,fibrin clots,no fibrin clot lysis
same,Plasma clot lysis,rabbit plasma clot,did not lyse
